Experimental data: ChEMBL document CHEMBL5385875, “Tumor killing by a dietary curcumin mono-carbonyl analog that works as a selective ROS generator via TrxR inhibition” (Eur J Med Chem, 2023)
Active and inactive are the calls of the source. The rule behind the calls is not given here.

Tests used:
NCI-H460 [1] = assay: Cytotoxicity against human NCI-H460 cells assessed as reduction in cell viability incubated for 48 hrs by MTT assay; format: functional, cell-based; conditions: NCI-H460, 48 h
A549 = assay: Cytotoxicity against human A549 cells assessed as reduction in cell viability incubated for 48 hrs by MTT assay; format: functional, cell-based; conditions: A549, 48 h
HepG2 = assay: Cytotoxicity against human HepG2 cells assessed as reduction in cell viability incubated for 48 hrs by MTT assay; format: functional, cell-based; conditions: HepG2, 48 h
[2] = Cytotoxicity against human MRC5 cells assessed as reduction in cell viability incubated for 48 hrs by MTT assay; format: toxicity, cell-based
NCI-H460 [3] = assay: Cytotoxicity against human NCI-H460 cells assessed as reduction in cell viability at 0.5 to 2 uM incubated for 48 hrs in presence of alpha tocopherol by MTT assay; format: functional, cell-based; conditions: dose 0.5-2 µM
NCI-H460 [4] = assay: Cytotoxicity against human NCI-H460 cells assessed as reduction in cell viability at 0.5 to 2 uM incubated for 48 hrs in presence of BSO by MTT assay; format: functional, cell-based; conditions: dose 0.5-2 µM
NCI-H460 [5] = assay: Induction of intracellular ROS accumulation in human NCI-H460 cells incubated for 1 to 12 hrs by DCFH-DA dye based fluorescence assay; format: functional, cell-based; conditions: dose 0.5-2 µM, time 1-12 hrs
NCI-H460 [6] = assay: Cytotoxicity against human NCI-H460 cells assessed as reduction in cell viability at 0.5 to 1 uM measured after 48 hrs in presence of ferrostatin-1 by MTT assay; format: functional, cell-based; conditions: dose 0.5-1 µM
NCI-H460 [7] = assay: Induction of apoptosis in human NCI-H460 cells assessed as reduction of mitochondrial membrane potential incubated for 12 to 36 hrs by JC-1 staining based flow cytometry analysis; format: functional, cell-based; conditions: dose 0.5-2 µM, time 12-36 hrs
NCI-H460 [8] = assay: Induction of apoptosis in human NCI-H460 cells assessed as reduction of mitochondrial membrane potential at 0.5 to 2 uM by JC-1 staining based flow cytometry analysis; format: functional, cell-based; conditions: dose 0.5-2 µM, time 12-36 hrs, TDE = time-dependent effect
NCI-H460 [9] = assay: Upregulation of Bax expression in human NCI-H460 cells at 1 to 2 uM measured after 48 hrs by immunoblot analysis; format: functional, cell-based; conditions: dose 1-2 µM
NCI-H460 [10] = assay: Upregulation of caspase-9 activation in human NCI-H460 cells at 1 to 2 uM measured after 48 hrs by immunoblot analysis; format: functional, cell-based; conditions: dose 1-2 µM
NCI-H460 [11] = assay: Upregulation of caspase-3 activation in human NCI-H460 cells at 1 to 2 uM measured after 48 hrs by immunoblot analysis; format: functional, cell-based; conditions: dose 1-2 µM
NCI-H460 [12] = assay: Downregulation of Bcl-2 expression in human NCI-H460 cells at 1 to 2 uM measured after 48 hrs in presence of NAC by immunoblot analysis; format: functional, cell-based; conditions: dose 1-2 µM
NCI-H460 [13] = assay: Upregulation of Bax expression in human NCI-H460 cells at 1 to 2 uM measured after 48 hrs in presence of NAC by immunoblot analysis; format: functional, cell-based; conditions: dose 1-2 µM
NCI-H460 [14] = assay: Upregulation of caspase-9 activation in human NCI-H460 cells at 1 to 2 uM measured after 48 hrs in presence of NAC by immunoblot analysis; format: functional, cell-based; conditions: dose 1-2 µM
NCI-H460 [15] = assay: Upregulation of caspase-3 activation in human NCI-H460 cells at 1 to 2 uM measured after 48 hrs in presence of NAC by immunoblot analysis; format: functional, cell-based; conditions: dose 1-2 µM
NCI-H460 [16] = assay: Induction of ferroptosis in human NCI-H460 cells assessed as increase in MDA levels at 2 uM measured after 40 hrs in presence of VE by MDA assay; format: functional, cell-based
NCI-H460 [17] = assay: Induction of ferroptosis in human NCI-H460 cells assessed as increase in MDA levels at 2 uM measured after 40 hrs in presence of NAC by MDA assay; format: functional, cell-based
NCI-H460 [18] = assay: Induction of ferroptosis in human NCI-H460 cells assessed as fold increase in MDA levels at 2 uM measured after 40 hrs by MDA assay; format: functional
NCI-H460 [19] = assay: Induction of ferroptosis in human NCI-H460 cells assessed as increase in intracellular […] by measuring increase in red fluorescence intensity at 0.25 to 0.5 uM incubated for 40 hrs by C11-BODIPY staining based microscopy analysis; format: functional, cell-based; conditions: dose 0.25-0.5 µM
MRC5 = assay: Induction of ferroptosis in human MRC5 cells assessed as increase in intracellular […] by measuring increase in red fluorescence intensity at 2 uM incubated for 40 hrs by C11-BODIPY staining based microscopy analysis; format: functional, cell-based
NCI-H460 [20] = assay: Induction of ferroptosis in human NCI-H460 cells assessed as reduction in GPX4 protein expression measured after 24 hrs by immunoblot analysis; format: functional, cell-based; conditions: dose 1-2 µM
[21] = Toxicity in BALB/c nude mouse assessed as animal death at 5 to 15 mg/kg, ip measured every two days for 27 days; format: organism-based; conditions: in vivo, 648 h, dose 5-15 mg/kg, time 27 day
[22] = Toxicity in BALB/c nude mouse assessed as effect on hair colour at 5 to 15 mg/kg, ip measured every two days for 27 days; format: organism-based; conditions: in vivo, 648 h, dose 5-15 mg/kg, time 27 day
[23] = Toxicity in BALB/c nude mouse assessed as effect on animal activity at 5 to 15 mg/kg, ip measured every two days for 27 days; format: organism-based; conditions: in vivo, 648 h, dose 5-15 mg/kg, time 27 day
[24] = Toxicity in BALB/c nude mouse assessed as effect on spleen at 5 to 15 mg/kg, ip measured every two days for 27 days; format: organism-based; conditions: in vivo, 648 h, dose 5-15 mg/kg, time 27 day
[25] = Toxicity in BALB/c nude mouse assessed as effect on lung at 5 to 15 mg/kg, ip measured every two days for 27 days; format: organism-based; conditions: in vivo, 648 h, dose 5-15 mg/kg, time 27 day
[26] = Toxicity in BALB/c nude mouse assessed as effect on kidney at 5 to 15 mg/kg, ip measured every two days for 27 days by H and E staining based analysis; format: organism-based; conditions: in vivo, 648 h, dose 5-15 mg/kg, time 27 day
NCI-H460 [27] = assay: Induction of ROS accumulation in human NCI-H460 cells assessed as reduction in GSH levels by measuring yellow green fluorescence incubated for 9 hrs in presence of NAC by fluorescence microscope based analysis; format: functional, cell-based
[28] = molecular target: T1, Thioredoxin reductase (Homo sapiens) (UniProt Q16881+Q9NNW7+Q86VQ6); assay: Inhibition of TrxR in human MRC5 cells at 2 uM measured after 6 hrs by fluorescence microscopy based analysis; format: cell-based
[29] = molecular target: T1, Thioredoxin reductase (Homo sapiens); assay: Inhibition of TrxR in human NCI-H460 cells at 2 uM measured after 6 hrs by DTNB reduction assay relative to control; format: cell-based
[30] = molecular target: T1, Thioredoxin reductase (Homo sapiens); assay: Inhibition of TrxR in human NCI-H460 cells measured after 6 hrs by DTNB reduction assay relative to control; format: cell-based; conditions: dose 0.5-2 µM
NCI-H460 [31] = assay: Inhibition of TrxR protein expression in human NCI-H460 cells measured after 6 hrs by immunoblot analysis; format: functional, cell-based; conditions: dose 0.5-2 µM
NCI-H460 [32] = assay: Antitumor activity against human NCI-H460 cells xenografted in BALB/c nude mouse assessed as induction of apoptosis at 5 to 15 mg/kg by H and E staining based analysis; format: functional, organism-based; conditions: dose 5-15 mg/kg
NCI-H460 [33] = assay: Antitumor activity against human NCI-H460 cells xenografted in BALB/c nude mouse assessed as induction of […] at 5 to 15 mg/kg by TUNEL staining based analysis; format: functional, organism-based; conditions: dose 5-15 mg/kg
NCI-H460 [34] = assay: Antitumor activity against human NCI-H460 cells xenografted in BALB/c nude mouse assessed as downregulation of GPX4 expression at 5 to 15 mg/kg by immunohistochemical staining based analysis; format: functional, organism-based; conditions: dose 5-15 mg/kg

O=C1/C(=C/c2cccc(C(F)(F)F)c2)CNC/C1=C\c1cccc(C(F)(F)F)c1
IC50 (NCI-H460 [1]): 0.44 µM
IC50 (A549): 5.8 µM
IC50 (HepG2): 0.67 µM
IC50 at 48 h [2]: 14.1 µM
Activity (NCI-H460 [3]): inactive
Activity (NCI-H460 [4]): Active
Activity (NCI-H460 [5]): Dose-Dependent Effect
Activity (NCI-H460 [6]): Active
Activity (NCI-H460 [7]): Dose-Dependent Effect
Activity (NCI-H460 [8]): Tde
Activity (NCI-H460 [9]): Active
Activity (NCI-H460 [10]): Active
Activity (NCI-H460 [11]): Active
Activity (NCI-H460 [12]): inactive
Activity (NCI-H460 [13]): inactive
Activity (NCI-H460 [14]): inactive
Activity (NCI-H460 [15]): inactive
Activity (NCI-H460 [16]): inactive
Activity (NCI-H460 [17]): inactive
fold change (FC) (NCI-H460 [18]): 3.5
Activity (NCI-H460 [19]): Active
Activity (MRC5): inactive
Activity (NCI-H460 [20]): Dose-Dependent Effect
Activity [21]: Non-Toxic
Activity [22]: Non-Toxic
Activity [23]: Non-Toxic
Activity [24]: Non-Toxic
Activity [25]: Non-Toxic
Activity [26]: Non-Toxic
Activity (NCI-H460 [27]): inactive
inhibition [28]: inactive
inhibition [29]: 59%
inhibition [30]: Dose-Dependent Effect
inhibition (NCI-H460 [31]): Dose-Dependent Effect
Activity (NCI-H460 [32]): Active
Activity (NCI-H460 [33]): Active
Activity (NCI-H460 [34]): Active
